Data reported in patent US7781423B2, “Compounds to promote regeneration of bone marrow” (priority 2007, dated 2010).

Tests used:
[1] = tested on: NIH 3T3, A431, MCF-7, MEL-28, HT-29, A549, T47D, CaOV-3, ZR-75-1, HTB-157, MEL-24, Hep G2, CaCO-2, MB-231 cells; assay: MTT survival/proliferation experiments on the panel of normal and cancer cells; assay type: cell-based, human, mouse; details: serum-free (survival) or 2% serum (proliferation); 72 hours; lower and higher (50 μM) concentration
Description: The NIH 3T3 (normal) mouse fibroblast, A431 human epidermoid adenocarcinoma, and MCF-7 human breast cancer cells were cultured in DMEM medium containing 10% FBS. The MEL-28 human melanoma cells were cultured in MEM medium containing 10% FBS. The HT-29 human colon adenocarcinoma cells were cultured in McCoy's 5a medium containing 10% FBS. The A549 human lung carcinoma cells were maintained in Ham's F12K medium containing 10% FBS. T47D cells were cultured in 12-well plates in RPMI 1640 medium supplemented with 0.2 IU bovine insulin and 10% FBS. CaOV-3 human ovarian cancer cells were cultured in DMEM containing 10% FBS. ZR-75-1 human estrogen receptor-positive breast cancer cells were maintained in RPMI 1640 medium supplemented with 10% FBS. HTB-157 human fetal fibroblasts, MEL-24 human malignant melanoma cells, Hep G2 human hepatoblastoma cells, and CaCO-2 human colon adenocarcinoma cells were maintained in Eagles's MEM containing 10% FBS. MB-231 human estrogen receptor-negative breast cancer cells were maintained in Leibovitz's L-15 medium supplemented with 10% FBS.
In the actual experiments, cells were seeded into 96-well plates and cultivated up to either ˜70-90% confluency (survival experiments) or 20-25% confluency (proliferation experiments). Then the medium was changed for serum-free medium (survival experiment) or 2% serum-containing medium (proliferation experiment). […]

[2] = tested on: transplanted bone marrow cells; assay: Bone marrow regeneration from transplanted bone marrow cells after lethal irradiation (BM cells, CFU-GM); assay type: in vivo, C57B1 mice; details: for CFU-GM per femur / CFU-GM/10^5 nucleated BM cells: CCompound1 4.5 mg per kg i.p. daily, day -3 to day +3
Description: C57B1 female (10-14 weeks old) mice received sublethal (250 cGy) whole body irradiation from a ^137Cesium source (day 0). Starting three days before irradiation, animals received daily 4.5 mg per kg of CCompound1 via intraperitoneal injection; this treatment also was provided on day 0 and once daily for three days subsequent to irradiation. In another group, mice were injected only with physiological saline. The subsequent procedure has been reported in Vas, V., Fajka-Boja, R., Ion, G. A., Dudics, V., Monostori, E. and Uher, F., “Biphasic effect of recombinant Galectin-1 on the growth and death of early hematopoietic cells,” Stem Cells, 23, 279-287 (2005). Briefly, bone marrow was flushed from the femurs with Iscove's modified Dulbecco's medium (Gibco BRL, Gaithersburg, Md., USA), and after standard erythrocyte lysis, nucleated cells were counted using a hemocytometer. Samples were taken on days 0, 1, 3, and 10. To measure the formation of the granulocyte-macrophage colony-forming units (CFU-GM), a semisolid colony-forming cell assay was used. Nucleated bone marrow cells (isolated on the days as indicated above) were plated in 35-mm Petri dishes (Costar, Cambridge, Mass., USA) in Iscove's modified Dulbecco's medium supplemented with 1% methylcellulose, 30% horse serum (Gibco), 10% WEHI-3B conditioned medium as a source of growth factors, 4 mM L-glutamine, 0.25 mM a-thioglycerol (Gibco), 1% deionized bovine serum albumine (Sigma), and antibiotics (Gibco). Cells were cultured at 37° C. in 5% CO2/95% air atmosphere and colonies were counted on day 7 in the same dish. Colonies containing at least 50 cells were counted which is a generally accepted value in the literature. Each value represents the mean±st. dev. of 9 samples (3 parallel dishes from each animal).
In this experiment the goal was to determine if CCompound1 can enhance expansion of transplanted bone marrow cells infused after applying a lethal dose of whole body irradiation (which reduces the number of bone marrow cells by more than 90%). C57B1 female mice (10-14 weeks old) were subjected to 900 cGy whole body irradiation from a ^137Cesium source which was followed within 6 hours by infusion of one million donor nucleated bone marrow cells by tail vein injection. Starting 3 days before irradiation, animals received daily 4.5 mg per kg of CCompound1 via intraperitoneal injection; this treatment also was provided on day 0 and once daily for the subsequent 3 days after irradiation. In another group, mice were injected only with physiological saline.
Bone marrow cells were collected on day 0 from non-irradiated animals as well as on days 6, 14, 28 and 42 after irradiation and bone marrow transplantation. Nucleated bone marrow cells were quantified and CFU-GM assay was performed as described in Example 3 while blood profiling was performed as described in Example 1. For each group, on the indicated days bone marrow and blood samples were collected from 3 animals. Each value presented in Table 5 and Table 6 represents the mean±st. dev. of 3 samples (derived from 3 animals).

healthy mice = assay: Toxicity in healthy mice; assay type: in vivo; details: 1,000-1,500 μmole doses
[3] = day 6 after 900 cGy irradiation and bone marrow transplantation
[4] = day 14 after 900 cGy irradiation and bone marrow transplantation
[5] = day 28 after 900 cGy irradiation and bone marrow transplantation
[6] = day 42 after 900 cGy irradiation and bone marrow transplantation

## Cc1c(OCC(O)C[N+](C)(C)C)cc2c(=O)c3ccccc3sc2c1C.[Cl-] (stereo not shown) [CCcompound1, [3-(3,4-Dimethyl-9-oxo-9H-thioxanthen-2-yloxy)-2-hydroxypropyl]trimethyl-ammonium chloride]
Solubility in water
  solubility in water: soluble in water
[1]
  enhancement of survival or proliferation: Neither the lower nor the higher concentration of CCompound1 enhanced the survival or proliferation
[2]; [3]
  CFU-GM per femur: 134.9
  CFU-GM/10^5 nucleated BM cells: 44.8 ± 5.1
[2]; day 6 following transplantation
  level of bone marrow re-population in the femur, treated versus untreated animals: about 5.3 fold
[2]; [4]
  CFU-GM per femur: 650.4
  CFU-GM/10^5 nucleated BM cells: 81.2 ± 5.3
[2]; day 14 following transplantation
  level of bone marrow re-population in the femur, treated versus untreated animals: ~2.9 fold
[2]; [5]
  CFU-GM per femur: 1,286.4
  CFU-GM/10^5 nucleated BM cells: 125.5 ± 9.1
[2]; [6]
  CFU-GM per femur: 992.4
  CFU-GM/10^5 nucleated BM cells: 71.5 ± 5.3
Healthy mice
  tissue alterations at high doses: mild parenchymal degeneration in the heart, focal hypostasis and chronic bronchopneumonia
